# Measured values as given in ChEMBL document CHEMBL3120164, “1,2,3,4-Tetrahydrobenzo[h][1,6]naphthyridines as a new family of potent peripheral-to-midgorge-site inhibitors of acetylcholinesterase: synthesis, pharmacological evaluation and mechanistic studies” (Eur J Med Chem, 2014).
# The source made the active and inactive calls. The rule behind the calls is not given here.
# Key:
# [1] = target: T1, Acetylcholinesterase (Homo sapiens, UniProt P22303); test: Mixed-type inhibition of human recombinant AChE using acetylthiocholine iodide as substrate assessed as enzyme-substrate-inhibitor complex by Lineweaver-Burk plot analysis
# [2] = target: T1, Acetylcholinesterase; test: Mixed-type inhibition of human recombinant AChE using acetylthiocholine iodide as substrate assessed as enzyme-inhibitor complex by Lineweaver-Burk plot analysis
# [3] = target: T2, Acetylcholinesterase (Electrophorus electricus, UniProt O42275)
# Description: Inhibition of electric eel AChE using acetylthiocholine iodide as substrate preincubated for 20 mins followed by substrate addition measured after 5 mins by Ellman's method
# [4] = target: Amyloid-beta precursor protein (Homo sapiens) (UniProt P05067); test: Inhibition of amyloid beta (1 to 42) aggregation (unknown origin) at 10 uM relative to control
# [5] = in vitro; settings: PAMPA
# Description: Permeability of the compound by BBB-PAMPA
# [6] = target: T1, Acetylcholinesterase; test: Inhibition of human recombinant AChE using acetylthiocholine iodide as substrate preincubated for 20 mins followed by substrate addition by Ellman's method
# [7] = target: Acetylcholinesterase (Electrophorus electricus) (UniProt O42275); test: Displacement of propidium from electric eel AChE peripheral anionic site assessed as decrease in fluorescence intensity at 1/1 propidium to compound ratio by spectrofluorometric analysis relative to control; settings: concentration not given here
# [8] = target: T3, Cholinesterase (Homo sapiens, UniProt P06276); test: Inhibition of human serum BChE using butyrylthiocholine iodide as substrate at 30 uM preincubated for 20 mins followed by substrate addition measured after 5 mins by Ellman's method relative to control
# [9] = target: T1, Acetylcholinesterase; test: Mixed-type inhibition of human recombinant AChE using acetylthiocholine iodide as substrate by Cornish-Bowden plot analysis
# [10] = target: Acetylcholinesterase (Electrophorus electricus) (UniProt O42275); test: Binding affinity to electric eel AChE peripheral anionic site assessed as concentration required for decreasing initial fluorescence intensity of AChE-propidium complex by spectrofluorometric analysis
# [11] = target: Acetylcholinesterase (Electrophorus electricus) (UniProt O42275); test: (§1) Displacement of propidium from electric eel AChE peripheral anionic site assessed as decrease in fluorescence intensity by spectrofluorometric analysis
# [12] = target: T2, Acetylcholinesterase; test: as §1
# [13] = target: T1, Acetylcholinesterase; test: Inhibition of human recombinant AChE using acetylthiocholine iodide as substrate at 25 uM preincubated for 20 mins followed by substrate addition by Ellman's method relative to control
# [14] = target: Acetylcholinesterase (Electrophorus electricus) (UniProt O42275); test: Inhibition of electric eel AChE using acetylthiocholine iodide as substrate at 30 uM preincubated for 20 mins followed by substrate addition measured after 5 mins by Ellman's method relative to control
# [15] = target: T3, Cholinesterase; test: Inhibition of human serum BChE using butyrylthiocholine iodide as substrate preincubated for 20 mins followed by substrate addition measured after 5 mins by Ellman's method
# [16] = target: T1, Acetylcholinesterase; test: Ratio of propidium IC50 to compound IC50 for human recombinant AChE
# [17] = target: T1, Acetylcholinesterase; test: Ratio of tacrine IC50 to compound IC50 for human recombinant AChE
# Chain of Amyloid-beta precursor protein (Homo sapiens) (P05067 whole entry): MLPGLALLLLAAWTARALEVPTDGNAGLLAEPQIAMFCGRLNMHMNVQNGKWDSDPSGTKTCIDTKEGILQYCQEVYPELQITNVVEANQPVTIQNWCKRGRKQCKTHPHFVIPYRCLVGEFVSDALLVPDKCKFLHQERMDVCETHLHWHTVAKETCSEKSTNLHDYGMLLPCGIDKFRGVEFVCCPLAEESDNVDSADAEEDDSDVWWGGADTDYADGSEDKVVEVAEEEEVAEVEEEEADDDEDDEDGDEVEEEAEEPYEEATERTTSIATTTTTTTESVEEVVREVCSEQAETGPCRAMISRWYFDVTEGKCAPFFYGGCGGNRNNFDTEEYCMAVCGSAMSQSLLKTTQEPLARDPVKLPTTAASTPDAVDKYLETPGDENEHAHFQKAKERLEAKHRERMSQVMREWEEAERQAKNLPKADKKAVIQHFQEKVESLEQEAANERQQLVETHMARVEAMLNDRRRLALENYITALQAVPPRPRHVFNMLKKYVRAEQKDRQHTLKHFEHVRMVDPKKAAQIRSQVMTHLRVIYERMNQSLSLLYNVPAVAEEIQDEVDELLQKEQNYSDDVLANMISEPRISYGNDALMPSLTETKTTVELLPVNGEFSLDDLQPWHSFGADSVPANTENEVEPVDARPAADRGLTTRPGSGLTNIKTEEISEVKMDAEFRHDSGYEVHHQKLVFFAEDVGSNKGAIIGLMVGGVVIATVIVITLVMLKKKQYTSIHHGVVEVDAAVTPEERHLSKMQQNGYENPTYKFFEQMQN
# Chain of Acetylcholinesterase (Electrophorus electricus) (O42275 24-633 limits assumed): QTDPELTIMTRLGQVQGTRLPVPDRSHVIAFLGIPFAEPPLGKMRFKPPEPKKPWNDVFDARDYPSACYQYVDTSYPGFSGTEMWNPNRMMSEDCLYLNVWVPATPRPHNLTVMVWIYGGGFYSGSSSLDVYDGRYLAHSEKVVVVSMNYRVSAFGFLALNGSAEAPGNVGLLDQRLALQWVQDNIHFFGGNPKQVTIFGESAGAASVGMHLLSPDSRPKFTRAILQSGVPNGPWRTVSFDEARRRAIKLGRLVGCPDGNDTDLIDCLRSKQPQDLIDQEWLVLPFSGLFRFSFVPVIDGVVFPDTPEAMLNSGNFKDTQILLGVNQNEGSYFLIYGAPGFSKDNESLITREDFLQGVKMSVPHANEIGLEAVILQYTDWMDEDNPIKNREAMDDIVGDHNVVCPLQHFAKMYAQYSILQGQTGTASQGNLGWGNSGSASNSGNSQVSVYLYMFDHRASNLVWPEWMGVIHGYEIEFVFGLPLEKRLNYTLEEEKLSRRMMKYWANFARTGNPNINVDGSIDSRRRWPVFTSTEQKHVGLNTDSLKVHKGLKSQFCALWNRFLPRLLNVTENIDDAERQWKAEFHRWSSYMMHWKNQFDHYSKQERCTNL
# T3 sequence (P06276 whole entry): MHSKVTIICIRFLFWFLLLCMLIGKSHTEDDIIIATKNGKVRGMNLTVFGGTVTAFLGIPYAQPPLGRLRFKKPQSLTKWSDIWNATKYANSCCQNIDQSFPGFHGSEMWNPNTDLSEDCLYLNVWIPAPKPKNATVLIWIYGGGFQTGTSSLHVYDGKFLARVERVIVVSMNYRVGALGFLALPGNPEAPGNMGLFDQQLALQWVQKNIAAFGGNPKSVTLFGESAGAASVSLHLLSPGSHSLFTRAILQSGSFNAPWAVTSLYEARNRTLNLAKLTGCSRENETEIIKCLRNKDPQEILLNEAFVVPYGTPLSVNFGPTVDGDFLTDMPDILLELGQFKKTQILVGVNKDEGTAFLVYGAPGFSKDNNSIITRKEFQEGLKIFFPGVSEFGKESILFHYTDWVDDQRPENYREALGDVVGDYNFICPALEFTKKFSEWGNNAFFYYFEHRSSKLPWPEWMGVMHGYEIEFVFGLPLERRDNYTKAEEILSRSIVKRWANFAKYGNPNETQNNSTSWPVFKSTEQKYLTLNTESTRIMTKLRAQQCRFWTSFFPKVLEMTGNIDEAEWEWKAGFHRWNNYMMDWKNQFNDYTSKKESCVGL
# T2 sequence (O42275 whole entry): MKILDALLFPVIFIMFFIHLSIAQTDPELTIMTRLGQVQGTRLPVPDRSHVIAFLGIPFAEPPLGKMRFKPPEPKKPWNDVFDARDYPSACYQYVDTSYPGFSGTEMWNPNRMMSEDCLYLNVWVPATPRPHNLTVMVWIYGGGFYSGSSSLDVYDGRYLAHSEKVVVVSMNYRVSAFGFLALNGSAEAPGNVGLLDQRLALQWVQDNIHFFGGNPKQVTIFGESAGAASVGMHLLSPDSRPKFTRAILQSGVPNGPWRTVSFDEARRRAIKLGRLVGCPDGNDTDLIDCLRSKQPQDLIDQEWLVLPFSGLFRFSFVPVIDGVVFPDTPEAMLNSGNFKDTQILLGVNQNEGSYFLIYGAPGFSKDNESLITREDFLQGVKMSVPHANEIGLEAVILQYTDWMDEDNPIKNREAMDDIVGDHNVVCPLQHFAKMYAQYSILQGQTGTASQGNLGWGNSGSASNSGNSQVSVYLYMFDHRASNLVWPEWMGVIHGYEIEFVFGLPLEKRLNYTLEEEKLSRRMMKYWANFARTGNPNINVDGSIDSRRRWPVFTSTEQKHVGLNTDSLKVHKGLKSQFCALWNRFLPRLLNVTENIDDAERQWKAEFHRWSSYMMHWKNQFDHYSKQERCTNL
# T1 sequence (P22303 whole entry): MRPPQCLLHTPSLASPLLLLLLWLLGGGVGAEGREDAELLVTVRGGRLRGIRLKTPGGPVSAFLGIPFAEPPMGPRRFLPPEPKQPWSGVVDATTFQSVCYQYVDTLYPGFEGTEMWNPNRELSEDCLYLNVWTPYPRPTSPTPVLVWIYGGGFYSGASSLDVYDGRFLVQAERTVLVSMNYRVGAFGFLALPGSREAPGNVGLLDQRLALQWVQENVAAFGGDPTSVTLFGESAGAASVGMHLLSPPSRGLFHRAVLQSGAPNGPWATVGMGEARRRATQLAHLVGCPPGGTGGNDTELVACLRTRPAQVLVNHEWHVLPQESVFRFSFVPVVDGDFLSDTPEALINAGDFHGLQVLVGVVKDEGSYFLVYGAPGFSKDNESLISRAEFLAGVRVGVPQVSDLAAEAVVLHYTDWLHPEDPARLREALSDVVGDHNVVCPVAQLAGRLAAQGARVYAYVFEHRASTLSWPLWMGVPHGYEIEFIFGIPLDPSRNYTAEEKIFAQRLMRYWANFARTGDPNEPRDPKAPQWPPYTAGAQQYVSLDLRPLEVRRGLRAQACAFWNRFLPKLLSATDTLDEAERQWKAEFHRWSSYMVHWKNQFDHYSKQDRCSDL
smiles,measurement,setting,value
CCNC(=O)c1ccc2nc(-c3ccc(Cl)cc3)c3c(c2c1)N(Cc1ccccc1)CCC3,Ki,[1],2340 nM
same,Ki,[2],785 nM
same,IC50,[3],5480 nM
same,inhibition,[4],< 16%
same,Papp,[5],7.7 ×10⁻⁶ cm/s
same,IC50,[6],801 nM
same,inhibition,[7],5%
same,inhibition,[8],25.3%
same,inhibition,[9],Active
CN1C(C(=O)Nc2ccccn2)=C(O)c2ccccc2S1(=O)=O [PIROXICAM],Papp,[5],1.71 ×10⁻⁶ cm/s
CCNCc1ccc2nc(-c3ccc(Cl)cc3)c3c(c2c1)N(Cc1ccccc1)CCC3,Activity,[10],33 µM
same,IC50,[3],147 nM
same,inhibition,[4],< 16%
same,inhibition,[11],Dose-dependent effect
same,Kd,[12],3200 nM
same,IC50,[6],942 nM
CCOC(=O)c1ccc2nc(-c3ccc(Cl)cc3)c3c(c2c1)N(Cc1ccc(OC)cc1)CCC3,IC50,[3],> 30000 nM
same,inhibition,[4],< 16%
same,Papp,[5],26 ×10⁻⁶ cm/s
same,inhibition,[13],10.2%
same,IC50,[6],> 25000 nM
same,inhibition,[14],33.7%
same,inhibition,[8],12.4%
CCNCc1ccc2nc(-c3cccnc3)c3c(c2c1)NCCC3,IC50,[15],2590 nM
same,IC50,[3],2150 nM
same,inhibition,[4],< 16%
same,Papp,[5],2.4 ×10⁻⁶ cm/s
same,IC50,[6],15800 nM
CCOC(=O)c1ccc2nc(-c3cccnc3)c3c(c2c1)N(Cc1ccccc1)CCC3,IC50,[3],1970 nM
same,inhibition,[4],< 16%
same,IC50,[6],1060 nM
CCNCc1ccc2nc(-c3ccc(Cl)cc3)c3c(c2c1)NCCC3,Activity,[10],23 µM
same,IC50,[15],1370 nM
same,IC50,[3],532 nM
same,inhibition,[4],< 16%
same,Papp,[5],5.6 ×10⁻⁶ cm/s
same,inhibition,[11],Dose-dependent effect
same,Kd,[12],2180 nM
same,IC50,[6],556 nM
CCOC(=O)c1ccc2nc(-c3ccc(Cl)cc3)c3c(c2c1)NCCC3,IC50,[3],281 nM
same,inhibition,[4],< 16%
same,Papp,[5],9.7 ×10⁻⁶ cm/s
same,inhibition,[13],17.8%
same,IC50,[6],> 25000 nM
same,inhibition,[8],20.3%
CCOC(=O)c1ccc2nc(-c3ccc(C(=O)OC)cc3)c3c(c2c1)N(Cc1ccccc1)CCC3,IC50,[3],6620 nM
same,inhibition,[4],< 16%
same,Papp,[5],9.5 ×10⁻⁶ cm/s
same,inhibition,[13],15.7%
same,IC50,[6],> 25000 nM
same,inhibition,[8],6.61%
CCn1cc(C(=O)O)c(=O)c2cc(F)c(N3CCNC(C)C3)c(F)c21 (stereo not drawn) [LOMEFLOXACIN],Papp,[5],0.75 ×10⁻⁶ cm/s
CCOC(=O)c1ccc2nc(-c3cccnc3)c3c(c2c1)NCCC3,IC50,[3],148 nM
same,inhibition,[4],< 16%
same,Papp,[5],14.6 ×10⁻⁶ cm/s
same,IC50,[6],22800 nM
same,inhibition,[8],27.5%
CCOC(=O)c1ccc2nc(-c3ccc(C(=O)OC)cc3)c3c(c2c1)N(Cc1ccccc1)C(=O)CC3,IC50,[3],13600 nM
same,inhibition,[4],< 16%
same,Papp,[5],16.8 ×10⁻⁶ cm/s
same,inhibition,[13],13.8%
same,IC50,[6],> 25000 nM
same,inhibition,[8],5.54%
CCOC(=O)c1ccc2nc(-c3ccc(Cl)cc3)c3c(c2c1)N(Cc1ccccc1)CCC3,IC50,[3],6330 nM
same,inhibition,[4],< 16%
same,Papp,[5],8.1 ×10⁻⁶ cm/s
same,inhibition,[13],10%
same,IC50,[6],> 25000 nM
same,inhibition,[8],8.68%
CCNC(=O)c1ccc2nc(-c3ccc(Cl)cc3)c3c(c2c1)NCCC3,Ki,[1],73 nM
same,Activity,[10],13 µM
same,Ki,[2],65 nM
same,Ratio IC50,[16],500
same,IC50,[15],920 nM
same,IC50,[3],46 nM
same,inhibition,[4],< 16%
same,Papp,[5],22.9 ×10⁻⁶ cm/s
same,inhibition,[11],Dose-dependent effect
same,Kd,[12],1760 nM
same,IC50,[6],65 nM
same,Ratio IC50,[17],6
same,inhibition,[9],Active
CCOC(=O)c1ccc2nc(-c3cccnc3)c3c(c2c1)N(Cc1ccccc1)C(=O)CC3,IC50,[3],> 30000 nM
same,inhibition,[4],< 16%
same,Papp,[5],12.2 ×10⁻⁶ cm/s
same,IC50,[6],13000 nM
same,inhibition,[14],43.7%
same,inhibition,[8],4.42%
CCOC(=O)c1ccc2nc(-c3ccc(Cl)cc3)c3c(c2c1)N(Cc1ccccc1)C(=O)CC3,IC50,[3],5210 nM
same,inhibition,[4],< 16%
same,Papp,[5],13.3 ×10⁻⁶ cm/s
same,IC50,[6],4150 nM
same,inhibition,[8],8.41%
